What was measured:
[1] = system: human neutrophils; assay: Binding of DTAF-labeled PGG β-glucan to human neutrophils, with excess unlabeled competitor; assay type: cell-based; conditions: 10 mg/mL unlabeled competitor; 25 μg/mL DTAF-labeled β-glucan
Method: In early optimization experiments, neutrophils, monocytes, and T cells were identified by staining with fluorescently labeled anti-CD 15, anti-CD 14, or anti-CD3 Abs, respectively. Events were collected on a LSRII flow cytometer (BD Biosciences, San Jose, Calif.) and analysis was performed using FLOWJO (Tree Star, Ashland, Oreg.). For assessing binding of DTAF-labeled PGG β-glucan to human neutrophils, 25 βg/mL, 100 μg/mL, or 400 μg/mL of labeled β-glucan was added to neutrophils resuspended in RPMI/10% serum, incubated in a 37° C., 5% CO2 humidified incubator for one hour, washed twice with cold FACS buffer, and fixed with 1% paraformaldehyde. Surface binding of DTAF-conjugated β-glucan was subsequently assessed by flow cytometric analysis.

[2] = target: T1, iC3b (Homo sapiens, UniProt P01024); assay: Immunoprecipitation of PGG β-glucan with BfD IV and detection of pulled-down iC3b; assay type: binding
T1 construct: from tissue
Method: PGG β-glucan or dextran at concentration 60-80 mg/mL was incubated with regular or HI serum at 1:10 volume ratio for 30 minutes in a 37° C. water bath. BfD IV Ab was added to the serum/β-glucan mixture and incubated at room temperature for additional 30 minutes. Magnetic beads conjugated with rat anti-mouse IgM (DYNABEADS, Invitrogen, Camarillo, Calif.) were washed three times with DPBS and incubated with serum-PGG β-glucan-BfD IV mixture for another 30 minutes at room temperature. The beads were separated magnetically and iC3b pulled-down along with immunoprecipitated PGG was probed using FITC-conjugated complement C3 Ab by flow cytometer.

[3] = system: human neutrophils; assay: Binding of PGG β-glucan after serum pre-treatment, neutrophils; assay type: cell-based; conditions: 200 μg/mL; 10% HI serum; two hours at 37° C.
Method: PGG β-glucan at concentration 60-80 mg/mL was incubated with human serum at 1:10 volume ratio for 30 minutes in a 37° C. water bath. The serum-pretreated PGG β-glucan was added to neutrophils at 200 μg/mL or to PBMC at 100 μg/mL resuspended in RPM1 containing either 10% regular autologous serum or 10% HI serum at indicated time and temperature of incubation. Binding was then determined as described previously.
To determine the role of complement proteins in binding, experiments were performed as described above except for using serum containing 10% HI, compstatin-treated or methylamine (MA)-treated, EGTA- or EGTA+MgCl2 (MgEGTA)-treated, or factor D-blocked serum. Heat-inactivated (HI) serum was prepared by incubating serum in a 56° C. water bath for 30 minutes. […] Treatment of serum with methylamine (MA) was done by incubating serum with 0.67% of methylamine for 2.5 hours at 37° C., followed by three washes with DPBS using Amicon centrifugal filter unit with a 3K MW cut-off (Millipore, Billerica, Mass.). DPBS-treated serum was prepared in the same manner and used as control serum for MA-treated serum. For blocking of factor D in the serum, 166-32 at concentration 20 μg/mL was incubated with serum on ice for 30 minutes, and then used for binding studies. […]

[4] = system: sC5b-9 complex; assay: Measurement of fluid-phase SC5b-9 complex formation in the serum; assay type: biochemical, human
Method: The MicroVue SC5b-9 EIA kit was used to measure activation of the classical and alternative pathways of complement according to the vendor's instruction (Quidel Corp., San Diego, Calif.). Briefly, the serum, untreated or treated was mixed with PBS, Ab-sensitized sheep RBC (SRBC), or 20 units of CVF and added to plate wells pre-coated with anti-sC5b-9 monoclonal antibody. The plate was incubated at 37° C. for 60 minutes, followed by five washes with the provided wash buffer. The plate was then incubated with the provided SC5b-9 Plus Conjugate, which contained horseradish peroxidase-conjugated Ab specific for sC5b-9 at room temperature for 30 minutes. The plate was washed five times, incubated with the substrate for 15 minutes at room temperature to initiate the enzymatic reaction and subsequently quenched with the stop solution. OD450 Was measured using the spectrophotometer SpectraMAX 250. The concentration of fluid phase sC5b-9 present in the samples was determined from the standard curve generated with the provided sC5b-9 standards.

[5] = target: T1, iC3b; assay: ELISA for iC3b deposition on immobilized PGG β-glucan; assay type: binding; conditions: 300 μg/mL immobilized
Method: PGG β-glucan or dextran was immobilized on wells of a 96-well polystyrene plate (COSTAR, Coming, Inc., Lowell, Mass.) by drying the glucans at 50° C. followed by UV cross-linking. The glucan-coated plate was first blocked with 1% BSA before incubation with untreated serum or serum undergone various treatments as described in binding studies, diluted 1:2 with wash buffer (PBS/0.05% Tween-20) for 30 minutes at 37° C. After washing the serum from the plate, the bound iC3b was probed using the anti-iC3b monoclonal antibody followed by biotin-labeled goat anti-mouse IgG Ab. The amount of immobilized biotin-labeled antibody was determined using streptavidin peroxidase and TMB substrate solution (KPL, Gaithersburg, Md.). OD450 of each well was measured with the spectrophotometer SpectraMAX 250 (Molecular Devices, Sunnyvale, Calif.). Fold change was calculated as OD450 of wells containing immobilized β-glucan divided by OD450 of wells containing no β-glucan, both incubated in the presence of treated or untreated serum.

[6] = system: T-cells; assay: Binding of PGG β-glucan to T-cells within PBMC (BfD IV staining, flow cytometry); assay type: cell-based, human; conditions: 100, 200, 400 μg/mL; 10% autologous serum; 37° C.; two hours
Method: Enriched neutrophils or PBMC were resuspended at 1×10^6 cells/mL in RPMI 1640 supplemented with 10% serum. PGG β-glucan at hexose concentrations 100 μg/mL, 200 μg/mL, or 400 μg/mL were added to neutrophils or PBMC and incubated in a 37° C., 5% CO2 humidified incubator for two hours. After incubation, cells were washed twice with FACS buffer (HBSS supplemented with 1% FBS and 0.1% sodium azide) to remove any unbound β-glucan, and subsequently treated with Fc block (Miltenyi Biotec, Auburn, Calif.). After the Fc block step, cells were stained with the BfD IV Ab for 30 minutes at 4° C. and washed twice with cold FACS buffer. Cells were then incubated with FITC-conjugated F(ab′)2 goat anti-mouse IgM for 30 minutes at 4° C. and washed once with cold FACS buffer before fixing with 1% paraformaldehyde.
In early optimization experiments, neutrophils, monocytes, and T cells were identified by staining with fluorescently labeled anti-CD 15, anti-CD 14, or anti-CD3 Abs, respectively. […] Surface binding of DTAF-conjugated β-glucan was subsequently assessed by flow cytometric analysis. To determine receptor-specific binding, binding of 25 μg/mL of DTAF-labeled PGG β-glucan was assessed by incubating the labeled β-glucan with the cells in the presence of 10 mg/mL of unlabeled PGG β-glucan or dextran.

T1 sequence (P01024 749-1303 limits assumed): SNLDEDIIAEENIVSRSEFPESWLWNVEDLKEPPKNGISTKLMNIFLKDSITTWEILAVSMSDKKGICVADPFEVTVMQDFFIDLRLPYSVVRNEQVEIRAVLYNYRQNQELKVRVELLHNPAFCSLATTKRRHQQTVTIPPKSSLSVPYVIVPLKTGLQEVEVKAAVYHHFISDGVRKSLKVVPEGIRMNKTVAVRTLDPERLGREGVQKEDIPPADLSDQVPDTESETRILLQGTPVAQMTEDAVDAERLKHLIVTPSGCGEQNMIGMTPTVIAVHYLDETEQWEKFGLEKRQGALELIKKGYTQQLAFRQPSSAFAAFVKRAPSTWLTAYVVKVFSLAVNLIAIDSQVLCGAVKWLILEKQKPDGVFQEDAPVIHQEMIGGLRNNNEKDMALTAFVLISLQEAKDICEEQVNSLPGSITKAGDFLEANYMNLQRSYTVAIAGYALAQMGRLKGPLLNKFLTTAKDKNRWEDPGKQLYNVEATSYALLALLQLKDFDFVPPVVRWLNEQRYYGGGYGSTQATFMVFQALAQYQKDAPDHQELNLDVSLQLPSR
T1 sequence (P01024 23-667 partner limits assumed): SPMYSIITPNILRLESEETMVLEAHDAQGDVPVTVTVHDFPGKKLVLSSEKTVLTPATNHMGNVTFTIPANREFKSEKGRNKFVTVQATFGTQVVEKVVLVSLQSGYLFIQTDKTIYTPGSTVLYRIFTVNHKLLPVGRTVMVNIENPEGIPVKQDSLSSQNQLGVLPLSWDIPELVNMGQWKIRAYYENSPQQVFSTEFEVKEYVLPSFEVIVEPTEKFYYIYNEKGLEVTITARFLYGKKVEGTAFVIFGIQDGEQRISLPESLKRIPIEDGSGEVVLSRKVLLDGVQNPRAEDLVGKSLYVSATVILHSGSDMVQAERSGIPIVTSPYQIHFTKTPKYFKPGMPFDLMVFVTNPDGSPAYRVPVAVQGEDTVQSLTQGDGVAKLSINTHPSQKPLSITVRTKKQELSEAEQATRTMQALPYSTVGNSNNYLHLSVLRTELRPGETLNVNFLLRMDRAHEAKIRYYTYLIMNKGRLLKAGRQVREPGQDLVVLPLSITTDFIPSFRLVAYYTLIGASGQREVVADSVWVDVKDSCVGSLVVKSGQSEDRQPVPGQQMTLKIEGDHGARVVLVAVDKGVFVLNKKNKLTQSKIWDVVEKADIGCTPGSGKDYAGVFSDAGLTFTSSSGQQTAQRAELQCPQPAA
T1 sequence (P01024 1321-1663 partner limits assumed): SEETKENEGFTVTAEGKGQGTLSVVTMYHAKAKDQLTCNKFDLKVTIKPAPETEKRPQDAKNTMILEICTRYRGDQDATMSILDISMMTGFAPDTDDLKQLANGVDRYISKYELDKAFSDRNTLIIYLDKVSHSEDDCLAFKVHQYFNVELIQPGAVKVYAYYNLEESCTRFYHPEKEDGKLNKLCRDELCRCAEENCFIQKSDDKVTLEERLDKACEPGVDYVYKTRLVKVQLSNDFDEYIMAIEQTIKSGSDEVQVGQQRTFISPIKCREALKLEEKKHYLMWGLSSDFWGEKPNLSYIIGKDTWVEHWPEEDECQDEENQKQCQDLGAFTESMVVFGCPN

Substance: β(1,6)-[poly-1,3)-D-glucopyranosyl]-poly-β(1,3)-D-glucopyranose [PGG β-glucan]
- Blocking of DTAF-labeled β-glucan staining by excess unlabeled glucan [1]: blocked by excess unlabeled β-glucan
- iC3b pulled down with BfD IV immunoprecipitate ([2]; glucan incubated with HI serum): no iC3b was detected
- iC3b pulled down with BfD IV immunoprecipitate ([2]; glucan incubated with regular serum): iC3b protein was pulled-down
- Extent of rescued binding to cells in HI serum (MFI, percentage of BfD IV positive cells) [3]: minimal
- Formation of terminal complement complexes (fluid phase MAC) in serum treated with the glucan [4]: did not activate formation of terminal complement complexes
- Fold increase of iC3b detected on immobilized glucan compared to background ([5]; HI serum 30 minutes at 37° C.): significantly less iC3b detected
- Fold increase of iC3b detected on immobilized glucan compared to background ([5]; regular serum 30 minutes at 37° C.): significantly higher
- Binding (MFI and percentage of BfD IV positive cells) [6]: not to T-cells

— patent US10092657B2, “Opsonized β-glucan preparations and methods” (Biothera, Inc., priority 2011, dated 2018)
